Values joined by “and” are separate entries in the source; they are usually repeats but may differ in a detail not shown here. Identical values can stand only once. Inconclusive results and toxic doses are left out. How the source made its calls: active means survival T/C of 150% or more; inactive means T/C below 125% in these data.
Test system: P388 leukemia ip, CD2F1 mice, survival T/C
Assay: NCI In Vivo Anticancer Drug Screen. Data for tumor model P388 Leukemia (intraperitoneal) in CD2F1 (CDF1) mice
Conditions: endpoint: median survival time, higher = longer survival
In short: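 Mice carrying the transplanted tumor received test compound or vehicle. Survival was recorded in each group, and the value is the treated-group measurement divided by that of the vehicle-treated control group.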

[1] = dose: 100.0 mg/kg/injection, schedule: Q01DX009 (ip), vehicle: saline
[2] = dose: 50.0 mg/kg/injection, schedule: Q01DX005 (ip), vehicle: saline with Tween-80
[3] = dose: 100.0 mg/kg/injection, schedule: Q01DX005 (ip), vehicle: saline with Tween-80
[4] = dose: 25.0 mg/kg/injection, schedule: Q01DX009 (ip), vehicle: saline
[5] = dose: 50.0 mg/kg/injection, schedule: Q01DX009 (ip), vehicle: saline
[6] = dose: 60.0 mg/kg/injection, schedule: Q01DX005 (ip), vehicle: saline with Tween-80
[7] = dose: 120.0 mg/kg/injection, schedule: Q01DX005 (ip), vehicle: saline with Tween-80
[8] = dose: 100.0 mg/kg/injection, schedule: Q04DX002 (ip), vehicle: saline with Tween-80
[9] = dose: 200.0 mg/kg/injection, schedule: Q04DX002 (ip), vehicle: saline with Tween-80

Measured: T/C

O=C(NCSC1=NCCS1)NCSC1=NCCS1
inactive: dose: 50.0 mg/kg/injection, schedule: Q01DX009 (ip), vehicle: suspension in saline 101 % of control and 103 % of control | [1] 91 % of control | dose: 100.0 mg/kg/injection, schedule: Q01DX009 (ip), vehicle: suspension in saline 100 % of control and 93 % of control | dose: 200.0 mg/kg/injection, schedule: Q01DX009 (ip), vehicle: suspension in saline 100 % of control and 105 % of control | dose: 400.0 mg/kg/injection, schedule: Q01DX009 (ip), vehicle: saline 94 % of control | dose: 400.0 mg/kg/injection, schedule: Q01DX009 (ip), vehicle: suspension in saline 101 % of control and 98 % of control

O=C1c2cccc(NCCCNCCO)c2C(=O)c2cccc(NCCCNCCO)c21
inactive: dose: 12.5 mg/kg/injection, schedule: Q04DX002 (ip), vehicle: distilled water + Tween-80 110 % of control | dose: 25.0 mg/kg/injection, schedule: Q04DX002 (ip), vehicle: distilled water + Tween-80 104 % of control | dose: 50.0 mg/kg/injection, schedule: Q04DX002 (ip), vehicle: distilled water + Tween-80 111 % of control

NNC(=O)COCC(=O)NN
inactive: dose: 25.0 mg/kg/injection, schedule: Q01DX009 (ip), vehicle: Klucel (hydroxypropylcellulose) (HPC) 106 % of control | dose: 50.0 mg/kg/injection, schedule: Q01DX009 (ip), vehicle: Klucel (hydroxypropylcellulose) (HPC) 100 % of control | dose: 100.0 mg/kg/injection, schedule: Q01DX009 (ip), vehicle: Klucel (hydroxypropylcellulose) (HPC) 104 % of control | dose: 200.0 mg/kg/injection, schedule: Q01DX009 (ip), vehicle: Klucel (hydroxypropylcellulose) (HPC) 100 % of control

CCOC(=O)COc1ccc(CC)cc1Cc1ccc(OC)cc1
inactive: [2] 97 % of control | [3] 111 % of control | dose: 200.0 mg/kg/injection, schedule: Q01DX005 (ip), vehicle: saline with Tween-80 111 % of control

OCc1nccn1Cc1ccccc1
inactive: dose: 50.0 mg/kg/injection, schedule: Q01DX001 (ip), vehicle: saline 115 % of control | dose: 100.0 mg/kg/injection, schedule: Q01DX001 (ip), vehicle: saline 95 % of control

C=C(CSc1ccc(C(=O)O)c([N+](=O)[O-])c1)c1ccc([N+](=O)[O-])cc1
inactive: dose: 12.5 mg/kg/injection, schedule: Q01DX009 (ip), vehicle: saline 105 % of control | [4] 106 % of control | [5] 99 % of control and 90 % of control

COC1=CC(=O)C(C/C=C/c2ccccc2)=CC1=O
inactive: dose: 2.5 mg/kg/injection, schedule: Q01DX009 (ip), vehicle: saline with Tween-80 103 % of control | dose: 5.0 mg/kg/injection, schedule: Q01DX009 (ip), vehicle: saline with Tween-80 105 % of control | dose: 10.0 mg/kg/injection, schedule: Q01DX009 (ip), vehicle: saline with Tween-80 105 % of control

CCN1CC(O)Cc2ccccc21 (stereo not drawn)
inactive: [6] 100 % of control | [7] 94 % of control

[Cu+2].[O-]/C(=N\N=C\c1ccccn1)c1ccc(Cl)cc1.[O-]/C(=N\N=C\c1ccccn1)c1ccc(Cl)cc1
inactive: dose: 50.0 mg/kg/injection, schedule: Q04DX002 (ip), vehicle: saline with Tween-80 90 % of control | [8] 93 % of control | [9] 90 % of control

Cc1ccc(N=c2scc(-c3ccccc3)n2-c2ccccc2)cc1
inactive: [8] 102 % of control | [9] 93 % of control | dose: 400.0 mg/kg/injection, schedule: Q04DX002 (ip), vehicle: saline with Tween-80 95 % of control

CCOC(=O)c1cn(C)c2c1C(=O)C(C(=O)OCC)CC(=O)N2 (stereo not drawn)
inactive: dose: 50.0 mg/kg/injection, schedule: Q01DX005 (ip), vehicle: saline + Tween-80 + alcohol 94 % of control | dose: 100.0 mg/kg/injection, schedule: Q01DX005 (ip), vehicle: saline + Tween-80 + alcohol 99 % of control | dose: 200.0 mg/kg/injection, schedule: Q01DX005 (ip), vehicle: saline + Tween-80 + alcohol 101 % of control

O=c1c(Cl)c(Cl)oc(Cl)c1Cl
inactive: [2] 100 % of control | [3] 98 % of control

CC(=O)N(Cc1cnc2nc(N)[nH]c(=O)c2n1)c1ccc(C(=O)NC(CCC(=O)O)C(=O)O)cc1 (stereo not drawn)
inactive: [4] 90 % of control | [5] 100 % of control | [1] 101 % of control and 104 % of control

Cc1ccccc1NC(=O)OCCCl
inactive: [6] 100 % of control | [7] 100 % of control | dose: 240.0 mg/kg/injection, schedule: Q01DX005 (ip), vehicle: saline with Tween-80 97 % of control

Reference: PubChem BioAssay AID330 (DTP/NCI, 2004)
